Measurements taken from patent US8614221B2, “Inhibitors of Akt activity” (Merck Sharp & Dohme Corp., priority 2009, dated 2013).

How the values were obtained:
Akt1 kinase = target: T1, Akt1 kinase (Homo sapiens, UniProt P31749); assay: Akt kinase assay (HTRF, GSK-derived biotinylated peptide substrate); assay type: biochemical
T1 construct: a middle T tag was added to the 5′ end of the full length Akt1 gene; middle T tag (EYMPME) (N); biotin tag (from pS2neo vector); made in house; host or cells: Drosophila S2 cells
Procedure: (§1) Activated Akt isoforms and pleckstrin homology domain deletion constructs were assayed utilizing a GSK-derived biotinylated peptide substrate. The extent of peptide phosphorylation was determined by Homogeneous Time Resolved Fluorescence (HTRF) using a lanthanide chelate(Lance)-coupled monoclonal antibody specific for the phosphopeptide in combination with a streptavidin-linked allophycocyanin (SA-APC) fluorophore which will bind to the biotin moiety on the peptide. When the Lance and APC are in proximity (i.e. bound to the same phosphopeptide molecule), a non-radiative energy transfer takes place from the Lance to the APC, followed by emission of light from APC at 665 nm.
(§2) Materials required for the assay:
(§3) A. Activated Akt isozyme or pleckstrin homology domain deleted construct
(§4) B. Akt peptide substrate: GSK3α (S21) Peptide #3928 biotin-GGRARTSSFAEPG (SEQ. ID. NO. 15), Macromolecular Resources.
(§5) C. Lance labeled anti-phospho GSK3α monoclonal antibody (Cell Signaling Technology, clone #27).
(§6) D. SA-APC (Prozyme catalog no. MSS lot #896067).
(§7) E. Microfluor®B U Bottom Microtiter Plates (Dynex Technologies, Catalog no. 7205).
(§8) F. Discovery® HTRF Microplate Analyzer, Packard Instrument Company.
(§9) G. 100× Protease Inhibitor Cocktail (PIC): 1 mg/mL benzamidine, 0.5 mg/mL pepstatin, 0.5 mg/mL leupeptin, 0.5 mg/mL aprotinin.
(§10) H. 10× Assay Buffer: 500 mM HEPES, pH 7.5, 1% PEG, […], 1 mM EGTA, 1% BSA, 20 mM θ-Glycerol phosphate.
(§11) I. Quench Buffer: 50 mM HEPES pH 7.3, 16.6 mM EDTA, 0.1% BSA, 0.1% Triton X-100, 0.17 nM Lance labeled monoclonal antibody clone #27, 0.0067 mg/mL SA-APC
(§12) J. ATP/MgCl2 working solution: 1× Assay buffer, 1 mM DTT, 1×PIC, 125 mM KCl, 5% Glycerol, 25 mM MgCl2, 375 μM ATP
(§13) K. Enzyme working solution: 1× Assay buffer, 1 mM DTT, 1×PIC, 5% Glycerol, active Akt. The final enzyme concentrations were selected so that the assay was in a linear response range.
(§14) L. Peptide working solution: 1× Assay buffer, 1 mM DTT, 1×PIC, 5% Glycerol, 2 μM GSK3 biotinylated peptide #3928
(§15) The reaction is assembled by adding 16 μL of the ATP/MgCl2 working solution to the appropriate wells of a 96-well microliter plate. Inhibitor or vehicle (1.0 μL) is added followed by 10 μL of peptide working solution. The reaction is started by adding 13 μL of the enzyme working solution and mixing. The reaction is allowed to proceed for 50 min and then stopped by the addition of 60 μL HTRF quench buffer. The stopped reactions were incubated at room temperature for at least 30 min and then read on the Discovery instrument.

Akt2 kinase = target: T2, Akt2 kinase (Homo sapiens, UniProt P31751); assay: as above; assay type: biochemical
T2 construct: a middle T tag was added to the 5′ end of the full length Akt2 using the PCR primer; middle T tag (EYMPME) (N); biotin tag (from pS2neo vector); made in house; host or cells: Drosophila S2 cells
Procedure: as §1, §2, §3, §4, §5, §6, §7, §8, §9, §10, §11, §12, §13, §14, §15

T1 sequence (P31749 whole entry): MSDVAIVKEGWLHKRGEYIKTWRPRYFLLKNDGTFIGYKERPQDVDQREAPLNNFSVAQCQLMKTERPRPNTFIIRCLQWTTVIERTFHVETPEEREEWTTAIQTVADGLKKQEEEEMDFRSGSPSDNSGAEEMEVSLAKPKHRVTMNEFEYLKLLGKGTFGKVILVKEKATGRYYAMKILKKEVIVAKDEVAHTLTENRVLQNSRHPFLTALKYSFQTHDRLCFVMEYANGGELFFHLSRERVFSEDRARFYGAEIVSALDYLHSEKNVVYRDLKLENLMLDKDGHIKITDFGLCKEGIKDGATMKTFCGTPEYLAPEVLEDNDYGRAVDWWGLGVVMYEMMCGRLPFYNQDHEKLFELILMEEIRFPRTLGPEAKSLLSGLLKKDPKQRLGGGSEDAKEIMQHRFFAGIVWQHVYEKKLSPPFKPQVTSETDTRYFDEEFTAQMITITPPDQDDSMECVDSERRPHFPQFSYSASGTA
T2 sequence (P31751 whole entry): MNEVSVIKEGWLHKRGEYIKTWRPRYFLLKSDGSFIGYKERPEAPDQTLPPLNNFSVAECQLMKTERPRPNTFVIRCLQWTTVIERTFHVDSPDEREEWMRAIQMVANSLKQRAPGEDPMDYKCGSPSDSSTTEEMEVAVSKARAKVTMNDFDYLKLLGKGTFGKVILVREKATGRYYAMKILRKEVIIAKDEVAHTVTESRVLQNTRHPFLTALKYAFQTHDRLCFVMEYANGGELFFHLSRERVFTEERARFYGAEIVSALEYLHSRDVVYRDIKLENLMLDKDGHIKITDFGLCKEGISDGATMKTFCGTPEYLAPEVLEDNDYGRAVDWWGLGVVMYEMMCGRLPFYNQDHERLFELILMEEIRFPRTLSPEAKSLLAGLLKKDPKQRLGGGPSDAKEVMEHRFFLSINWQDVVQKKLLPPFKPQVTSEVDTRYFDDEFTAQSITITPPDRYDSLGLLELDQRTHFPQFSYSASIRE

Row | SMILES | IC50 (Akt1 kinase) [nM] | IC50 (Akt2 kinase) [nM]
1 | C=CCNC(=O)C1CCN(Cc2ccc(-c3nc4c(cnc5cc(C)nn54)cc3-c3ccccc3)cc2)CC1 [EXAMPLE 15-3, 2-methyl-7-phenyl-8-(4-{[4-(prop-2-en-1-ylcarbamoyl)piperidin-1-yl]methyl}phenyl)pyrazolo[1,5-a]pyrido[3,2-e]pyrimidine] | 37.2 | 578
2 | NC1(c2ccc(-c3nc4c(ccn5c(C6CC6)nnc45)cc3-c3ccccc3)cc2)CCC1 [EXAMPLE 9-2, 1-{4-[3-cyclopropyl-8-phenyl[1,2,4]triazolo[4,3-h]-1,7-naphthyridin-9-yl)phenyl}cyclobutanamine] | 32.7 | 33.8
3 | Cc1cc2ncc3cc(-c4ccccc4)c(-c4ccc([C@]5(N)C[C@@](O)(C6CC6)C5)cc4)nc3n2n1 [EXAMPLE 1-9, trans-3-amino-1-cyclopropyl-3-[4-(2-methyl-7-phenylpyrazolo[1,5-a]pyrido[3,2-e]pyrimidin-8-yl)phenyl]cyclobutanol] | 4 | 29
4 | c1ccc(-c2cc3cnc4nc(N5CCOCC5)nn4c3nc2-c2ccc(CN3CCC(c4nnc(-c5ccccn5)[nH]4)CC3)cc2)cc1 [EXAMPLE 12-3, 2-morpholin-4-yl-7-phenyl-8-(4-{[4-(5-pyridin-2-yl-4H-1,2,4-triazol-3-yl)piperidin-1-yl]methyl}phenyl)pyrido[3,2-e][1,2,4]triazolo[1,5-a]pyrimidine] | 4.6 | 33.8
